Results reported in publication PMC7480105, “Wbox2: A clathrin terminal domain–derived peptide inhibitor of clathrin-mediated endocytosis” (The Journal of Cell Biology, 2020).

How the values were obtained:
SNX9 = SNX9 (Homo sapiens, UniProt Q9Y5X1); test: Isothermal titration calorimetry with SNX9; format: binding; conditions: ITC, 1.8 mM peptide injected into 50 µM SNX9
Description: GUSSI was further used to output the figures presented.

[1] = system: TfnR uptake via CME in ARPE/HPV cells; test: TfnR uptake (in-cell ELISA) after peptide preincubation; format: cell-based; conditions: 60-min preincubation at 37°C (Fig. 7 F), TAT at concentrations <100 µM
Procedure: Peptides encoding the TAT sequence (YGRKKRRQRRR) followed by 10 amino acid sequences covering the four reported binding sites on the clathrin terminal domain (Fig. 7 A) were synthesized by GenScript (Piscataway, NJ) with >95% purity. Peptides were dissolved in dH2O and further diluted in PBS4+ (1× PBS buffer plus 0.2% BSA, 1 mM CaCl2, 1 mM MgCl2, and 5 mM D-glucose) or cell culture medium (for imaging) when applied to cells. Peptide solutions were stored at −20°C.
Internalization of TfnR, CD44, CD59, and Biotin-Tfn was quantified by in-cell ELISA following established protocols ([Conner and Schmid, 2003]; [Srinivasan et al., 2018]). Cells were seeded in 96-well plates (Costar) at 60–70% confluence and grown overnight. Before the assay, cells were starved for 30 min in PBS4+ at 37°C or treated with peptides in PBS4+ at 37°C for the indicated times. After starvation, cells were moved to 4°C, and culture medium was replaced with cold PBS4+ containing 5 µg/ml HTR-D65 (anti-TfnR mAb; [Schmid and Smythe, 1991]), anti-human CD44 or anti-human CD59 (BD PharMingen) or 5 µg/ml Biotin-Tfn (Sigma-Aldrich). For single-round assays, the above reagents were kept with cells for 20 min at 4°C and then washed out before uptake assay. For multiround assays, the above reagents were kept with cells throughout the uptake process. In parallel, some cells were kept at 4°C for the measurement of surface-bound ligands and blank controls, and some were incubated in a 37°C water bath for the indicated times. Acid wash (0.2 M acetic acid and 0.2 M NaCl, pH 2.3) was used to remove surface-bound antibodies, followed by washing with cold PBS. All were fixed with 4% PFA (Electron Microscopy Sciences) in PBS for 30 min at 37°C. 0.1% Triton X-100 was added for 6.5 min to permeabilize cells, followed by addition of blocking buffer. HTR-D65–, CD44-, and CD59-treated cells were blocked with Q-PBS (PBS, 2% BSA, 0.1% lysine, and 0.01% saponin, pH 7.4), and Biotin-Tfn–treated cells were blocked with 2% casein. Surface-bound and internalized HTR-D65, CD44, and CD59 were probed with goat anti-mouse antibody conjugated with HRP (Sigma-Aldrich), and Biotin-Tfn was probed with Streptavidin-POD conjugate (Sigma-Aldrich). Color was developed using o-phenylenediamine dihydrochloride (OPD) solution (Sigma-Aldrich), and absorbance was read at 490 nm (Biotek Synergy H1 Hybrid Reader). Cell number variation among wells was accounted for by bicinchoninic acid assay reading at 562 nm.

TD–AP2 interactions = test: GST-TD (1–580) pulldown of AP2 from mouse brain extract; format: biochemical; conditions: increasing peptide concentrations, overnight at 4°C, Western blot, three independent runs (Fig. 9 B, C)
Procedure: A mouse brain was homogenized using a Dounce tissue grinder (Sartorius) in 1 ml MES buffer (100 mM Mes, 1 mM EGTA, 0.5 mM MgCl2, and 0.1 mM PMSF, pH 6.4). After spinning at 5,000 g and 4°C for 3 min, the supernatant was ultracentrifuged at 110,000 g for 60 min. The resulting pellet was then resuspended in extraction buffer (3 vol of 1 M Tris, pH 8, 1 vol Mes buffer, with added PMSF and DTT to 0.1 mM each) for 30 min at room temperature. The resuspended solution was ultracentrifuged at 110,000 g for 60 min to collect supernatant containing released coat proteins. The brain extract buffer was exchanged to pulldown reaction buffer (50 mM Tris, 150 mM NaCl, and 0.1 mM EGTA, pH 7.5) using zeba spin desalting columns (Thermo Fisher Scientific).
In the pulldown assay, 75 µg GST-TD (residues 1–580) in reaction buffer was mixed with coat protein fractions (10% of total extract from a mouse brain) and the indicated concentrations of peptides. The mixture was incubated with 50 µl of a 50% slurry of glutathione Sepharose 4B beads (ABT) and left to rotate overnight at 4°C. Subsequently, beads were collected by spinning down at 1,000 g for 2 min and washed twice with reaction buffer. The beads were resuspended in Laemmli sample buffer and denatured at 95°C before running on 7.5% SDS-PAGE and Western blotting.

cytotoxicity = system: cytotoxicity; design: method as in Rosselli-Murai et al., 2018; conditions: ref Rosselli-Murai et al., 2018; cited from earlier work

Sequence of SNX9 (Q9Y5X1 whole entry, species assumed): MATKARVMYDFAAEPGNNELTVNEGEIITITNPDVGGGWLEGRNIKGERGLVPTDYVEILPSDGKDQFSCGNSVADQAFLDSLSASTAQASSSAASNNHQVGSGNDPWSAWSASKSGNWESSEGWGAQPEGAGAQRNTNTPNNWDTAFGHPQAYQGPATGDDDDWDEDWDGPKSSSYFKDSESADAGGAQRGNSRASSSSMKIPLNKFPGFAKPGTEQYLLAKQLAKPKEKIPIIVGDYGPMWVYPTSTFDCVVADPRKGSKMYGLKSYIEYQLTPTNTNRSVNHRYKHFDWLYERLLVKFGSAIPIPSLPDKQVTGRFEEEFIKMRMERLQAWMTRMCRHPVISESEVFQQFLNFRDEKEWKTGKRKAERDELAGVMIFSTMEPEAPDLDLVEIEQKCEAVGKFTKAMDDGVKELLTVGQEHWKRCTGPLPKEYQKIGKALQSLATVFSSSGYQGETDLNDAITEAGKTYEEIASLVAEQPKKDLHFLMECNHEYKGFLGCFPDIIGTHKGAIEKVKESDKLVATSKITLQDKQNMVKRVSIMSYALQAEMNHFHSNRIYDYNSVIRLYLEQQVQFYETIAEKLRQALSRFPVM

Row | Substance | interaction with SNX9 compared with Wbox2 (SNX9) | inhibitory activity on TfnR uptake, concentration curve [1] | inhibition of AP2 pulldown by GST-TD (TD–AP2 interactions) | cytotoxic concentration relative to CME-inhibitory concentration (cytotoxicity)
1 | YGRKKRRQRRR [TAT, arginine-rich TAT peptide, negative control, reference compound] | much weaker interactions | did not inhibit | much weaker inhibition | 
2 | pitstop |  |  |  | cytotoxic at concentrations only approximately twofold higher
